Results taken from patent US20160242416A1, “FUNGICIDAL ISOXAZOLINE CARBINOLS” (E I DU PONT DE NEMOURS AND COMPANY, priority 2015, published 2016).

Legend:
Stagonospora nodorum = assay: Test D: wheat glume blotch, preventive spray on wheat seedlings; conditions: 100 = 100% disease control; for Test D rating (% disease control): 10 ppm, wheat glume blotch, 0 = no control; for Test D disease control rating: 10 ppm test solution, 0 = no control relative to controls
[1] = tested on: Erysiphe graminis f sp. tritici; assay: Test G: wheat powdery mildew, preventive spray on wheat seedlings; conditions: 100 = 100% disease control; for Test G rating (% disease control): 10 ppm, wheat powdery mildew, 0 = no control; for Test G disease control rating: 10 ppm test solution, 0 = no control relative to controls
[2] = tested on: Puccinia recondita f sp. tritici; assay: Test F: wheat leaf rust, preventive spray on wheat seedlings; conditions: 100 = 100% disease control; for Test F rating (% disease control): 10 ppm, wheat leaf rust, 0 = no control; for Test F disease control rating: 10 ppm test solution, 0 = no control relative to controls
Description: (§1) General protocol for preparing test solutions for Tests A-G: the test compounds were first dissolved in acetone in an amount equal to 3% of the final volume and then suspended at the desired concentration (in ppm) in acetone and purified water (50/50 mix by volume) containing 250 ppm of the surfactant PEG400 (polyhydric alcohol esters). The resulting test suspensions were then used in Tests A-G. Compounds were sprayed at a concentration of 50 ppm (*) or 10 ppm to the point of run-off on the test plants, the equivalent of a rate of 200 g/ha or 40 g/ha, respectively.
The test solution was sprayed to the point of run-off on wheat seedlings. The following day the seedlings were inoculated with a spore suspension of Puccinia recondita f sp. tritici; (the causal agent of wheat leaf rust) and incubated in a saturated atmosphere at 20° C. for 24 h, and then moved to a growth chamber at 20° C. for 6 days, after which time visual disease ratings were made.
A dash (-) indicates no test results. Compounds with an asterisks (*) were applied at a concentration of 50 ppm, otherwise test solutions were applied at 10 ppm.

Botrytis cinerea = assay: Test B: gray mold, preventive spray on tomato seedlings; conditions: 100 = 100% disease control; for Test B rating (% disease control): 10 ppm, gray mold on tomato, 0 = no control; for Test B disease control rating: 10 ppm test solution, 0 = no control relative to controls
Zymoseptoria tritici = assay: Test E: wheat leaf blotch, preventive spray on wheat seedlings; conditions: 100 = 100% disease control; for Test E rating (% disease control): 10 ppm, wheat leaf blotch, 0 = no control; for Test E disease control rating: 10 ppm test solution, 0 = no control relative to controls
Description: as §1
The test solution was sprayed to the point of run-off on wheat seedlings. The following day the seedlings were inoculated with a spore suspension of Zymoseptoria tritici (the causal agent of wheat leaf blotch) and incubated in a saturated atmosphere at 24° C. for 48 h, and then moved to a growth chamber at 20° C. for 17 days, after which time visual disease ratings were made.
Compounds with an asterisks (*) were applied at a concentration of 50 ppm, otherwise test solutions were applied at 10 ppm.

Row | SMILES | Test D rating (% disease control) (Stagonospora nodorum) [%] | Test G rating (% disease control) [1] [%] | Test F rating (% disease control) [2] [%] | Test B rating (% disease control) (Botrytis cinerea) [%] | Test E rating (% disease control) (Zymoseptoria tritici) [%] | Test D disease control rating (Stagonospora nodorum) [%] | Test G disease control rating [1] [%] | Test F disease control rating [2] [%] | Test B disease control rating (Botrytis cinerea) [%] | Test E disease control rating (Zymoseptoria tritici) [%]
1 | OC(Cn1cncn1)(C1=NOC(c2ccc(Cl)cc2)C1)C12CC3CC(CC(C3)C1)C2 (single isomer, unassigned) [Compound 39] | 87 | 73 | 0 | 0 | 18 | – | – | – | – | –
2 | OC(Cn1cncn1)(C1=NOC(c2ccc(Cl)cc2)C1)c1ccccc1F (single isomer, unassigned) [Compound 135] | 69 | 81 | 98 | 0 | 1 | – | – | – | – | –
3 | OC(Cn1cncn1)(C1=NOC(c2ccc(Cl)cc2)C1)c1ccc(Br)cc1 (single isomer, unassigned) [Compound 180] | 99 | 100 | 100 | 0 | 1 | – | – | – | – | –
4 | CC(C)(C)CC(O)(Cn1cncn1)C1=NOC(Cc2ccc(C(F)(F)F)cc2)C1 (single isomer, unassigned) [Compound 226] | – | – | – | – | – | 51 | 99 | 100 | 0 | 0
5 | CCC(C)(C)C(O)(Cn1cncn1)C1=NOC(Cc2ccc(C(F)(F)F)cc2)C1 (single isomer, unassigned) [Compound 19] | 89 | 100 | 100 | 0 | 10 | – | – | – | – | –
6 | CC(C)(C)C(O)(Cn1cncn1)C1=NOC(CCc2ccc(Cl)cc2)C1 (single isomer, unassigned) [Compound 16] | 100 | 99 | 100 | 32 | 8 | – | – | – | – | –
7 | OC(Cn1cncn1)(C1=NOC(c2ccc(Cl)cc2)C1)c1ccc(Cl)cc1Cl (single isomer, unassigned) [Compound 140] | 82 | 99 | 100 | 0 | 67 | – | – | – | – | –
8 | CC(C)(C)C(O)(Cn1cncn1)C1=NOC(COc2ccc(-n3cc(Br)cn3)cc2)C1 (stereo not shown) [Compound 30] | 0 | 100 | 79 | 99 | 0 | – | – | – | – | –
9 | CC(C)(C)C(O)(Cn1cncn1)C1=NOC(CCc2ccc(Cl)cc2)C1 (single isomer, unassigned) [Compound 15] | 100 | 100 | 100 | 100 | 19 | – | – | – | – | –
10 | OC(Cn1cncn1)(C1=NOC2c3ccccc3CCC12)c1ccc(Cl)cc1 (stereo not shown) [Compound 223] | – | – | – | – | – | 0 | 99 | 100 | 0 | 63
11 | CC(C)(C)C(O)(Cn1cncn1)C1=NOC(c2cnccn2)C1 (single isomer, unassigned) [Compound 169] | 9 | 0 | 0 | 0 | 4 | – | – | – | – | –
12 | CC(C)(C)C(O)(Cn1cncn1)C1=NOC(CO[Si](C)(C)C(C)(C)C)C1 (single isomer, unassigned) [Compound 10] | 0 | 13 | 19 | 0 | 0 | – | – | – | – | –
13 | OC(Cn1cncn1)(C1=NOC(Cc2ccc(F)cc2)C1)c1ccc(Cl)cc1 (single isomer, unassigned) [Compound 200] | 11 | 99 | 99 | 0 | 16 | – | – | – | – | –
14 | CS(=O)(=O)c1ccc(C2CC(C(O)(Cn3cncn3)c3ccc(Cl)cc3)=NO2)cc1 (single isomer, unassigned) [Compound 114] | 0 | 56 | 36 | 0 | 39 | – | – | – | – | –
15 | OC(Cn1cncn1)(C1=NOC(c2ccc(C(F)(F)F)cc2)C1)c1ccc(C(F)(F)F)cc1 (single isomer, unassigned) [Compound 153] | 0 | 100 | 100 | 0 | 93 | – | – | – | – | –
16 | CC(C)(C)C(O)(Cn1cncn1)C1=NOC(Cn2cc(Br)cn2)C1 (single isomer, unassigned) [Compound 41] | 0 | 90 | 41 | 0 | 0 | – | – | – | – | –
17 | CC(C)(C)C(O)(Cn1cncn1)C1=NOC(CSc2ccc(Cl)cc2)C1 (single isomer, unassigned) [Compound 26] | 70 | 89 | 74 | 92 | 0 | – | – | – | – | –
18 | CC(C)(C)C(O)(Cn1cncn1)C1=NOC(COc2ccc(Cl)nc2)C1 (single isomer, unassigned) [Compound 97] | 99 | 94 | 98 | 0 | 0 | – | – | – | – | –
19 | CC1(C(O)(Cn2cncn2)C2=NOC(c3ccc(Cl)cc3)C2)CC1 (single isomer, unassigned) [Compound 127] | 98 | 98 | 98 | 0 | 9 | – | – | – | – | –
20 | CC(C)(C)C(O)(Cn1cncn1)C1=NOC(Cc2ccccc2)C1 (single isomer, unassigned) [Compound 86] | 99 | 98 | 74 | 72 | 1 | – | – | – | – | –
21 | CC(C)(C)CC(O)(Cn1cncn1)C1=NOC(COc2ccc(Br)cc2)C1 (single isomer, unassigned) [Compound 171] | 63 | 94 | 100 | 0 | 0 | – | – | – | – | –
22 | CC(C)(C)C(O)(Cn1cncn1)C1=NOC(COc2ccc(Cl)cc2)C1 (stereo not drawn) [Compound 174, α-[5-[(4-chlorophenoxy)methyl]-4,5-dihydro-3-isoxazolyl]-α-(1,1-dimethylethyl)-1H-1,2,4-triazole-1-ethanol] | 100 | 100 | 100 | 58 | 12 | – | – | – | – | –
23 | OC(Cn1cncn1)(C1=NOC(c2cccc(Oc3ccccc3)c2)C1)c1ccc(Cl)cc1 (single isomer, unassigned) [Compound 176] | 82 | 100 | 100 | 0 | 2 | – | – | – | – | –
